Laboratory results reported in publication PMC10327353 (Breast Cancer Research : BCR, 2023).
Like-named read-outs stand apart in the source and are kept apart here.

What was measured:
P-gp (MDR1) = molecular target: T1, P-gp (MDR1) (Homo sapiens, UniProt P08183); experiment: P-gp efflux ratio, bi-directional transport assay; type: in vitro ADME
T1 construct: expressed in transfected cells; host or cells: MDCKII-MDR1
Description: Passive permeability (Papp) characterizes the rate across the cell membrane due to passive diffusion. A high permeability enables the rapid establishment of equilibrium among plasma, CSF, and brain compartments. Except for passive permeability, sufficient unbound drug concentration in the brain is governed by efflux transporters, including P-gp (MDR1, ABCB1) and BCRP, at BBB. Efflux ratio (ER) reflects the liability of a compound to be pumped out of the brain by BBB efflux transporters, which is indicated by the distribution disequilibrium between the plasma and the brain compartments.
[…] The adjusted efflux ratio was used to determine if DZD1516/DZ2678 underwent active efflux. Verapamil, a P-glycoprotein (P-gp) inhibitor, was used to identify if any active transport processes were mediated through P-gp. The apical-to-basolateral (A-B) and basolateral-to-apical (B-A) transport of DZD1516/DZ2678 in HBSS (25 mM HEPES, pH 7.4) with 0.1% BSA was measured across MDCKII-MDR1 cell monolayers in the absence and presence of the P-gp inhibitor, verapamil (100 μM). The apical-to-basolateral (A-B) and basolateral-to-apical (B-A) transport of DZD1516/DZ2678 in HBSS (25 mM HEPES, pH 7.4) with 0.1% BSA was also measured across MDCKII cell monolayers in the absence and presence of the P-gp inhibitor, verapamil. Incubations were performed at approximately 37°C for 120 min, with the functionality of the test system being confirmed using 5 μM digoxin as a positive control substrate. […] determined by quantifying substrate concentration in the incubation medium of the donor compartment at the beginning of the incubation period and both donor and receiver compartments at the end of the incubation period. The data was used to calculate the apparent permeability (Papp). All incubations were performed in triplicate, and the integrity of the cell monolayers was confirmed using the marker Lucifer yellow.

pHER2 = molecular target: T2, pHER2 (Homo sapiens, UniProt P04626); experiment: pHER2 IHC (PD) in SC xenograft tumor tissue after single dose; type: in vivo, mice
T2 construct: from tissue; host or cells: subcutaneous BT474C1-Luci Mono1 xenograft tumour tissue from nude mice
Description: The subcutaneous xenograft tissues were collected from mice after a single dose of vehicle or DZD1516. Samples were snap-frozen for analysis. Tissues from animals were analyzed at each time point IHC was performed on 5 μm frozen sections using a Ventana discovery XT automation (Roche) for pHER2 (Catalog #) IHC staining. The stained IHC slides were firstly reviewed and interpreted by a qualified pathologist and then quantified by the Imagescope software of Aperio system. The “H” score quantified by Aperio system will be corrected by a pathologist. Statistical analysis was performed by t-test.

[1] = Phase 1 study: plasma pharmacokinetics; type: in vivo, human; details: for AUC(0-t): 250 mg
Description: Blood samples for PK analyses of DZD1516 and DZ2678 were collected on C0D1. Samples were obtained at pre-dose and at 0.5, 1, 1.5, 2, 2.5, 3, 4, 6, 8, 10, 24, 48, and 72 h after the dose, while for C1D15, samples were obtained at pre-dose and 0.5, 1, 1.5, 2, 2.5, 3, 4, 6, 8, and 10 h after the dose. CSF samples for PK analyses of DZD1516 and its metabolite DZ2678 were collected from patients with BM (C1D15) and LM (C1D15 and C3D1) at steady state (Additional file 1). Plasma and CSF samples were analyzed by LabCorp Madison laboratory (Madison, WI, USA) and LabCorp Shanghai laboratory (Shanghai, China) using a validated LC/MS/MS bioanalytical method to determine DZD1516 and DZ2678 concentrations. Non-compartmental PK analysis was performed using Phoenix WinNonlin (Certara USA Inc., version 8.3.3.33).
Blood samples for PK analyses of DZD1516 and DZ2678 were collected on C0D1 and C1D15.
Plasma concentrations of analytes evaluated in this study were determined using validated bioanalytical methods at Labcorp Madison lab (Madison, WI, USA) and Labcorp Shanghai lab (Shanghai, China). Concentrations of analytes in human plasma containing K2EDTA as an anticoagulant was determined using plasma precipitation, followed by analysis using high-performance LC-MS/MS detection. Two bioanalytical methods used […] of plasma and were linear over the range of 5.00 (the lower limit of quantification) to 5000 ng/mL for DZD1516 and 2.00 (the lower limit of quantification) to 2000 ng/mL for DZ2678 (Labcorp Shanghai lab), 1.96 (the lower limit of quantification) to 1960 ng/mL for DZ2678 (Labcorp Madison lab). The analysis runs for all analytes were determined to have a high degree of reproducibility and acceptably low inter-run carryover, which was considered acceptable for PK quantification. The plasma samples were stored at –70°C until analysis. PK analyses were performed by using Phoenix WinNonLin (Certara USA, Inc., Version 8.1 or higher).

A431 cells = experiment: Cell proliferation assay (CellTiter-Glo), A431; type: cell-based; details: Homo sapiens, A-431; A431, 72 hrs
Description: BT474C1-Luci Mono1 cells were seeded in 384-well plates at 1500 cells/well in DMEM medium containing 10% FBS and 1 mM Oxaloacetic acid (OAA). A431 cells were seeded in 384-well plates at 1,000 cells/well in DMEM medium containing 10% FBS. After overnight incubation, cells were treated with compounds at various concentrations for 3 days. Then cell viability was measured using a CellTiter-Glo Luminescent Cell Viability Assay from Promega Corp. according to the manufacturer's instructions.

[2] = Human hepatocyte intrinsic clearance; type: in vitro ADME; details: human hepatocytes; read-out: Human Heps Clint

T2 sequence (P04626 23-1255): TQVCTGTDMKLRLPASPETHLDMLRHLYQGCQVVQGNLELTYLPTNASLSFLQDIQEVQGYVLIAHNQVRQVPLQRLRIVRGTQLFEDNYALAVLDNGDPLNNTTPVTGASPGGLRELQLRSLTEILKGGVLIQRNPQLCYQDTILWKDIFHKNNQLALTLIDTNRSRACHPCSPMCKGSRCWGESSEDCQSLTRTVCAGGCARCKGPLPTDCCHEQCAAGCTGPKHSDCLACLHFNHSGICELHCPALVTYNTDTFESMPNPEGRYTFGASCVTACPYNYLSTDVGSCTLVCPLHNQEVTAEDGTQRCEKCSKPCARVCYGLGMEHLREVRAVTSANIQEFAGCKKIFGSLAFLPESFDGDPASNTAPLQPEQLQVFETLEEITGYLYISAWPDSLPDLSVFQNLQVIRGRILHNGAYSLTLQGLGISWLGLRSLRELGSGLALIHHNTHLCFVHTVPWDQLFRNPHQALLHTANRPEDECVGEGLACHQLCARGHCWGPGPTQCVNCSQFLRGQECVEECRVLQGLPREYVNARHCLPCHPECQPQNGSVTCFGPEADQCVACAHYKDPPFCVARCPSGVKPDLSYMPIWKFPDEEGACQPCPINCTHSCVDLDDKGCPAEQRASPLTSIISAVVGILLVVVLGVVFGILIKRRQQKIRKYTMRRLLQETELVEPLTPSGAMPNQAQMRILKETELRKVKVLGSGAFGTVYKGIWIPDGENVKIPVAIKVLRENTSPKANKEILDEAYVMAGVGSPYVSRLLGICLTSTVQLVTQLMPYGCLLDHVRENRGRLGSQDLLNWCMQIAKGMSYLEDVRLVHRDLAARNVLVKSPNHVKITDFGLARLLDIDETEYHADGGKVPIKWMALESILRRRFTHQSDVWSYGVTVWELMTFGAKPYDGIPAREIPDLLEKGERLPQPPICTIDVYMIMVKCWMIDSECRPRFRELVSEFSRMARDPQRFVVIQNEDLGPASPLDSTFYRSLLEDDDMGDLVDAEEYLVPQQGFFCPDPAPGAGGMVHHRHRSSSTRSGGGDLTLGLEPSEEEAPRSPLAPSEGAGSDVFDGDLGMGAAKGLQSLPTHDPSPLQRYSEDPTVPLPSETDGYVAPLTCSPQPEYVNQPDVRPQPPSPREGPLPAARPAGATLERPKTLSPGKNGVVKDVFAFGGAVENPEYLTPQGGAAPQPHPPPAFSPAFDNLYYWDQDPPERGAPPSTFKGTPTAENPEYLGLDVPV
T1 sequence (P08183 whole entry): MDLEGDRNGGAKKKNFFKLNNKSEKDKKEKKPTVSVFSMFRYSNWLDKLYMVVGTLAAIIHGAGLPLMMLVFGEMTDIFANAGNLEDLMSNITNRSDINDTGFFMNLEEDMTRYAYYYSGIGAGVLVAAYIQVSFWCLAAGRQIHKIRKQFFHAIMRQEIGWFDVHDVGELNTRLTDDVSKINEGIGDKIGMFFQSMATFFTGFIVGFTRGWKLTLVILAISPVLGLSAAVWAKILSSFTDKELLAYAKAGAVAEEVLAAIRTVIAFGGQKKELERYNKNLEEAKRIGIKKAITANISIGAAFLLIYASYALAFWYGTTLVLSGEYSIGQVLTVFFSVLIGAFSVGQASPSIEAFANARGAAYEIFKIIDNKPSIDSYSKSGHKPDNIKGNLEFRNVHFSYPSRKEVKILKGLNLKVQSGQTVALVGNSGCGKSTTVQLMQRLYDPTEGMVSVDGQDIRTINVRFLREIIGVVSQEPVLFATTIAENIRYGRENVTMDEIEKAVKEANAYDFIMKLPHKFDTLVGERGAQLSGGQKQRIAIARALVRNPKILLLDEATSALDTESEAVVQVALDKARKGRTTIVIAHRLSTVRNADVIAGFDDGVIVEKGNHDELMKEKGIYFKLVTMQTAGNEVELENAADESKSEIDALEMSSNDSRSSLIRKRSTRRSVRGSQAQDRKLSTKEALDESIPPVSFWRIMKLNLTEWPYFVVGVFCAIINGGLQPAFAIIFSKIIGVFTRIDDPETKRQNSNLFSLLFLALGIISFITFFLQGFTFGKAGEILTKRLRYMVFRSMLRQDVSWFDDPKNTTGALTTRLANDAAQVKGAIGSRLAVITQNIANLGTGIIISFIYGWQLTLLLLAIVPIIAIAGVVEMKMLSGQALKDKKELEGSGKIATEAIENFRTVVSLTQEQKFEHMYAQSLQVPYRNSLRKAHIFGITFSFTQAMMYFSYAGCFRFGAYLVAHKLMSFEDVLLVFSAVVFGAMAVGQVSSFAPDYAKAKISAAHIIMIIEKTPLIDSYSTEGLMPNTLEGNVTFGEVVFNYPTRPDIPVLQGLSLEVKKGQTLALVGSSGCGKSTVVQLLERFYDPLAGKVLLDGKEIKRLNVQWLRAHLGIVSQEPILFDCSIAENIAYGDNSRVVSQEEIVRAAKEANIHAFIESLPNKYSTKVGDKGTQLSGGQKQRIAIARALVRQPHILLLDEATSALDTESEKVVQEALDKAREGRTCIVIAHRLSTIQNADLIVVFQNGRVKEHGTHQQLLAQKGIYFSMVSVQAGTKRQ

## COc1cc(O[C@H]2CCN(C)CC2(F)F)c2c(Nc3ccc(Oc4ccn5ncnc5c4)c(C)c3)ncnc2c1 [DZD1516]
P-gp (MDR1); human, MDCK-MDR1, pH 7.4
  efflux ratio at 120 min, 1 µM: < 2
P-gp (MDR1); listed as Cpd-5
  Efflux ratio P-gp @1 µM: 1.6
pHER2; mouse, single dose 50 mg/kg, 0.25 h
  inhibition at 50 mg/kg: > 94%
pHER2; mouse, single dose 150 mg/kg
  inhibition at 150 mg/kg: 89%
pHER2; single dose 50 mg/kg
  duration of pHER2 inhibition: 6 h
pHER2; single dose 150 mg/kg
  duration of pHER2 inhibition: 24 h
[1]; Day 15, 250 mg BID DZD1516
  Css,max, Geometric Mean [CV%]: 1410[44.64] ng/mL
  Css,min, Geometric Mean [CV%]: 442.8[50.12] ng/mL
  tss,max, Median (Min, Max): 1.483(0.533,2.47) hr
[1]; human, plasma, oral, Day 1, 250 mg DZD1516, read-out: AUC0-10, Geometric Mean [CV%]
  AUC(0-t): 6160 ng·h/mL
[1]; human, plasma, oral, Day 1, 250 mg DZD1516, read-out: AUC0-72, Geometric Mean [CV%]
  AUC(0-t): 13200 ng·h/mL
[1]; human, plasma, oral, Day 15, 250 mg BID DZD1516, read-out: AUC0-10, Geometric Mean [CV%]
  AUC(0-t): 7560 ng·h/mL
[1]; human, plasma, oral, Day 1, 250 mg DZD1516, read-out: Cmax, Geometric Mean [CV%]
  Cmax: 1330 ng/mL
[1]; human, plasma, oral, Day 1, 250 mg DZD1516, read-out: t1/2, Mean (SD) (converted)
  half-life: 1190 min
[1]; human, plasma, oral, Day 1, 250 mg DZD1516, read-out: tmax, Median (Min, Max)
  Tmax: 2.85 h
[1]; human, plasma, oral, Day 15, 250 mg BID DZD1516, read-out: AUCtau, Geometric Mean [CV%]
  AUC: 8340 ng·h/mL
[1]; human, plasma, oral, patients, read-out: half-life
  half-life: 798 to 1210 min
[1]; human, plasma, patients, single oral administration 50 to 300 mg, read-out: median tmax
  Tmax: 2.15 to 3.22 h
[1]; steady state, 15 days of twice daily dosing
  accumulation: approximately twofold
A431 cells
  GI50: 8.87 µM
[2]
  hepatocyte CLint: 12 µL/min/1e6 cells
